Measured values: patent US20240109877A1, “PYRIMIDINES FOR DEGRADING BRUTON'S TYROSINE KINASE” (AbbVie Inc., priority 2022, published 2024)

What was measured:
[1] = biological target: Human BTK enzyme, wild-type (Homo sapiens (Human), UniProt Q06187); test: BTK Screening: Btk kinase activity, electrophoretic mobility shift assay (MSA); format: biochemical; settings: 0.5 nM BTK enzyme, 50 μM ATP, 15 minutes pre-incubation, 3 hours at 25° C.
Protocol: Btk kinase activity was measured in vitro using an electrophoretic mobility shift assay (MSA). The ability of Btk to phosphorylate a fluorescent peptide substrate (FAM-GEEPLYWSFPAKKK-NH2) was measured. The kinase reactions were assembled in a total volume of 25 μL per well in 384 well plates. The following was added to each well: compound buffer (or control); enzyme buffer; and substrate buffer, as further described below.
Specifically the following was added: (1) compound buffer or control: 5μL of 5× compound buffer [(5× compound buffer comprised of: 1× Master Buffer, X μM test compound in 5% dimethyl sulfoxide; (2× Master Buffer comprised of 200 mM HEPES, pH7.5, 0.2% BSA, and 0.02% Triton X-100)]; and (2) enzyme buffer: 10 μL of 2.5× enzyme buffer (1× Master Buffer, 12.5 mM MgCl2, 2.5 mM DTT, 25 μM sodium orthovanadate, 25 μM beta-glycerophosphate, and 1.25 nM BTK enzyme). Human BTK enzyme Nanosyn-293HEK, wild-type, available from Nanosyn, Santa Clara, CA). Enzyme and compound were pre-incubated for 15 minutes. Additionally, the following was added: (3) substrate buffer: 10 μL of 2.5× substrate buffer (1× Master Buffer, […], and 2.5 μM of the peptide substrate FAM). Each plate was incubated at 25° C. for 3 hours. The reaction was terminated by adding to each well: 45 μL of 1.55× stop buffer (1× Master Buffer and 31 mM EDTA). The final reaction mixture was as follows: 100 mM HEPES, pH7.5; 0.1% BSA; 0.01% Triton X-100; 1 mM DTT; 5 mM MgCl2; 10 μM sodium orthovanadate; 10 μM beta-glycerophosphate; 50 μM ATP; 1% dimethyl sulfoxide (from compound); 1μM fluorescent peptide substrate and 0.5 nM BTK- enzyme. The terminated reactions were analyzed using a 12 channel LABCHIP® 3000 microfluidic detection instrument (available from Caliper Life Sciences, Waltham, MA). […] As substrate and product peptides were separated, two peaks of fluorescence were observed. Change in the relative fluorescence intensity of the substrate and product peaks was the parameter measured, reflecting enzyme activity. In the presence of an active compound, the ratio between product and substrate was altered. The signal of the product decreased, while the signal of the substrate increased. Capillary electrophoregrams (RDA acquisition files) were analyzed using HTS Well Analyzer software (available from Caliper Life Sciences, Waltham, MA).
Activity in each sample was determined as the product to sum ratio (PSR): P/(S+P), where P was the peak height of the product peptide and S was the peak height of the substrate peptide. For each compound, enzyme activity was measured at various concentrations (12 concentrations of compound spaced by 3× dilution intervals). Negative control samples (0% inhibition in the absence of an active compound) and positive control samples (100% inhibition, in the presence of 20 mM EDTA) were assembled in replicates of four and were used to calculate % inhibition values for each active compound at each concentration. Percent inhibition (Pinh) was determined using following equation: Pinh=(PSR0%−PSRinh)/(PSR0%−PSR100%)*100, where PSRinh was the product sum ratio in the presence of inhibitor, PSR0% was the average product sum ratio in the absence of active compound and PSR100% was the average product sum ratio in 100%-inhibition control samples.
The IC50 values of active compounds were determined by 4 parameter sigmoidal dose response model fitting of the inhibition curves (Pinh versus inhibitor concentration) using XLfit® 4 software (IDBS, Boston, MA). The IC50 values are reported in Table 2 in the BTK IC50 (nM) column.

[2] = biological target: BTK protein in human whole blood (Homo sapiens (Human), UniProt Q06187); test: Btk protein in human whole blood MSD ELISA based assay (Btk degradation); format: cell-based; settings: human whole blood from healthy donors, 6 hours at 37° C., half maximal degradation concentration; read-out: hWB BTK DC50
Protocol: Btk protein degradation was tested using an Meso Scale Discovery-ELISA system (MSD-ELISA): (1) Test compounds were added to human whole blood; (2) human whole blood cells treated with test compounds were lysed; (3) lysed cells were treated with capture antibody, an antibody to Btk; (4) lysed cells were treated with […] to Btk; and (5) lysed cells were treated with anti-mouse antibody (tagged).
Specifically, about 80 μl of fresh human whole blood from healthy donors was transferred into each well of a 96-well V-bottom plate (Costar, Cat No.3894). Using a TECANTM D300e Digital Dispenser (Tecan)), 1:4 serially diluted compounds [(8 pt assay) in DMSO solution (final 0.2%) starting at 3 μM top concentration], were added in duplicate. Thereafter, plates were placed in a 37° C. incubator and incubated for 6 hours.
At the end of incubation, 80 μl of 2× CST lysis buffer (Cell Signaling Technology, Cat No. 9803), prepared from a 10× stock solution, was added per well to lyse the blood. Plates were then sealed with a plate sealer and the samples were frozen overnight at −80° C.
Total amount of BTK protein remaining in the blood samples after compound treatment was measured using MSD-ELISA. After thawing the frozen plates, blood lysates were mixed thoroughly and transferred to small spot high-bind MSD plates (Meso Scale Discovery, Cat No. L45XB-3) and coated with capturing antibody, rabbit anti-human BTK (D3H5) (Cell Signaling Technology, Cat No. 8547CF). Thereafter, primary detection antibody, mouse anti-human BTK monoclonal antibody, (BD Biosciences, Cat No. 611117) and secondary detection antibody, anti-mouse SULFO-TAG (Meso Scale Discovery, Cat No. R32AC-1) were added. The assay plates were read on an MSD S600 plate reader by the addition of 2× MSD read buffer (Meso Scale Discovery, R92TC-1). All reagent transfers, including blood lysis, was conducted using a Biomed i7 liquid handler. From the dose response curves, DC50 values were calculated by averaging data from duplicate experiments. and Curve fitting was done by non-linear regression using GraphPad Prism. The DC50 values are reported in Table 2 in the hWB BTK DC50 (nM) column The Dmax values represent the maximum amount of BTK degradation observed upon compound treatment compared to DMSO only treated samples. The dMax (%) values are reported in Table 2 in the hWB BTK dMax (%) column.

[3] = biological target: His-tagged Cereblon/DDB1 complex (Homo sapiens (Human), UniProt Q96SW2); test: Cereblon Binding Assay (AlphaLISA Human Cereblon Binding Kit, competition); settings: 10 μM top dose, biotin-labeled ligand competition; read-out: CRBN IC50
Protocol: Cereblon binding was measured in vitro using an AlphaLISA® Human Cereblon Binding Kit (PerkinElmer, Waltham, MA) according to the manufacturer's protocol (“Alpha” refers to Amplified Luminescent Proximity Homogeneous Assay). In this assay, donor beads and acceptor beads come into proximity through ligand binding to CRBN protein. Excitation of the donor beads provokes the release of singlet oxygen that triggers a cascade of energy transfer reactions to the acceptor beads, resulting in a sharp peak in light emission at 615 nm.
Specifically, nickel chelate acceptor beads (PerkinElmer AL108M) were used to capture a 6XHIS-tagged CRBN protein, and streptavidin-coated donor beads (PerkinElmer 6760002) were used to capture 50 nM biotinylated ligand. Each well included the following: sample or control; HIS-tagged CRBN protein; biotinylated ligand; nickel chelate acceptor beads; and streptavidin donor beads.
Competition Assay: Test compounds in 100% dimethyl sulfoxide were plated onto white, low volume 384 well plates (PerkinElmer Proxiplate 384 plus # 6008289) using an Labcyte Echo acoustic dispenser, in an 11-point dose curve and 3-fold dilution scheme. […] Plates were incubated for 30 minutes at room temperature.
Detection: 10 μL detection reagents were added in low light conditions containing nickel chelate acceptor beads and streptavidin donor beads (Perkin Elmer 6760002), resulting in a final concentration 20 ng/ml. Plates were incubated 1 hour and read on a PerkinElmerTM Envision™ plate reader (680 nm excitation and […] settings). The IC50 of each compound was determined by calculating percent inhibition from no drug and no protein controls, and the Ki of each compound was calculated using the Cheng-Prusoff transformation. From the IC50 values were determined. The IC50 values are reported in Table 2 in the CRBN IC50 (nM) column.

IC50 [1]	DC50 [2]	IC50 [3]	SMILES
0.0986 nM	4.21 nM	≥ 10000 nM	COC[C@H]1CN(CCc2ccc(N3CCC(=O)NC3=O)cc2)CCN1c1ccc(Nc2cc(-c3ccc([C@@H](C)NC(=O)c4nc(C(C)(C)C)no4)c(C)c3)ncn2)nc1 [Example 15, 3-tert-butyl-N-[(1R)-1-{4-[6-({5-[(2R)-4-{2-[4-(2,4-dioxo-1,3-diazinan-1-yl)phenyl]ethyl}-2-(methoxymethyl)piperazin-1-yl]pyridin-2-yl}amino)pyrimidin-4-yl]-2-methylphenyl}ethyl]-1,2,4-oxadiazole-5-carboxamide]
0.438 nM	14.2 nM	≥ 10000 nM	C[C@@H](NC(=O)c1nc(C(C)(C)C)no1)c1ccc(-c2cc(Nc3ccc(N4CCN(CCc5ccc(N6CCC(=O)NC6=O)cc5)C[C@@H]4C)cn3)ncn2)cc1C(F)(F)F [Example 16, 3-tert-butyl-N-[(1R)-1-{4-[6-({5-[(2S)-4-{2-[4-(2,4-dioxo-1,3-diazinan-1-yl)phenyl]ethyl}-2-methylpiperazin-1-yl]pyridin-2-yl}amino)pyrimidin-4-yl]-2-(trifluoromethyl)phenyl}ethyl]-1,2,4-oxadiazole-5-carboxamide]
0.103 nM	4.13 nM	3870 nM	C[C@@H](NC(=O)c1nc(C(C)(C)C)no1)c1ccc(-c2cc(Nc3ccc(N4CCN(CCc5ccc(N6CCC(=O)NC6=O)cc5)C[C@@H]4C)cn3)ncn2)cc1F [Example 17, 3-tert-butyl-N-[(1R)-1-{4-[6-({5-[(2S)-4-{2-[4-(2,4-dioxo-1,3-diazinan-1-yl)phenyl]ethyl}-2-methylpiperazin-1-yl]pyridin-2-yl}amino)pyrimidin-4-yl]-2-fluorophenyl}ethyl]-1,2,4-oxadiazole-5-carboxamide]
